The test relates to 782815-120-R-J1-PDC complex spheroid viability. Description: Anticancer human tumor 782815-120-R-J1-PDC patient-derived colon adenocarcinoma cell line growth inhibition [RAS]. As to conditions: for viability, T/C: stronger effect = lower value. Put shortly:
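Tumour cells grown as complex spheroids with HUVEC endothelial cells and mesenchymal stem cells, treated with RAS pathway inhibitor combinations. Each agent spans half-log steps from near clinical Cmax, or 10 microM where Cmax is unknown.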
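Also: spheroids exposed to compounds for 7 days before reading.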
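For viability, T/C in this document: 100% = DMSO vehicle control viability.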

By viability, T/C is commonly meant the result in the treated group divided by that in the control group, in per cent. The term IC50 denotes the point on the concentration scale where inhibition reaches its midpoint. As to `CC(=O)OC12COC1CC(O)C1(C)C(=O)C(O)C3=C(C)C(OC(=O)C(O)C(NC(=O)OC(C)(C)C)c4ccccc4)CC(O)(C(OC(=O)c4ccccc4)C21)C3(C)C` (centres undefined), the viability, T/C runs as follows: (compound 0.0316 µM) 35% [middle of 4 runs]; (compound 0.1 µM) 33.6% [middle of 4 runs]; (compound 0.316 µM) 25.9% [middle of 4 runs]; (compound 1 µM) 27.1% [middle of 4 runs]; (compound 3.16 µM) 27.9% [middle of 4 runs]; (compound 10 µM) 33.1% [middle of 4 runs]. For the same molecule, the IC50 (curve of compound) is less than 31.6 nM.

For the molecule `CC(C)n1nc(-c2ccc3oc(N)nc3c2)c2c(N)ncnc21`, the viability, T/C is, setting by setting: (compound 0.000316 µM) 98.8% [middle of 4 runs]; (compound 0.001 µM) 97.7% [middle of 4 runs]; (compound 0.00316 µM) 93.8% [middle of 4 runs]; (compound 0.01 µM) 90.3% [middle of 4 runs]; (compound 0.0316 µM) 95.5% [middle of 4 runs]; (compound 0.1 µM) 83.7% [middle of 4 runs]. For the same molecule, the IC50 (curve of compound) is greater than 100 nM.

Regarding `Nc1ccn(C2OC(CO)C(O)C2(F)F)c(=O)n1` (centres undefined), the viability, T/C (compound 0.00316 µM) is 91.4% [middle of 4 runs]; the viability, T/C (compound 0.01 µM) is 71.8% [middle of 4 runs]; the viability, T/C (compound 0.1 µM) was 40.8% [middle of 4 runs]; the viability, T/C (compound 0.316 µM) is 27% [middle of 4 runs]; the viability, T/C (compound 1 µM) was 25.6% [middle of 4 runs]. Also, the IC50 (curve of compound) was 60.1 nM [middle of 4 runs].

With `CC1(O)CCCC1n1c(=O)c(C(F)F)cc2cnc(NC3CCN(S(C)(=O)=O)CC3)nc21` (centres undefined), the viability, T/C is, setting by setting: (compound 0.0316 µM) 70.6% [middle of 4 runs]; (compound 0.1 µM) 66.3% [middle of 4 runs]; (compound 0.316 µM) 64.3% [middle of 4 runs]; (compound 1 µM) 70% [middle of 4 runs]; (compound 3.16 µM) 63.5% [middle of 4 runs]; (compound 10 µM) 27% [middle of 4 runs]. In addition, the IC50 (curve of compound) is 4.69 µM [middle of 4 runs].

With `NC1c2ccccc2OC12CCN(c1cnc3c(N4CCCc5ncccc54)n[nH]c3n1)CC2` (centres undefined) + CCn1c(-c2cc(N3CCN(C)CC3)cnc2C(C)OC)c2c3cc(ccc31)-c1csc(n1)CC(NC(=O)C1CC1C)C(=O)N1CCCC(N1)C(=O)OCC(C)(C)C2, the IC50 runs as follows: (curve of first compound, second compound 0.000949 µM) greater than 10000 nM; (curve of first compound, second compound 0.003 µM) 1660 nM; (curve of first compound, second compound 0.00949 µM) less than 31.6 nM; (curve of first compound, second compound 0.03 µM) less than 31.6 nM; (curve of first compound, second compound 0.0949 µM) less than 31.6 nM; (curve of first compound, second compound 0.3 µM) less than 31.6 nM. The viability, T/C is 74.5% (second compound 0.000949 µM, first compound 0.0316 µM); 74.1% (second compound 0.000949 µM, first compound 0.1 µM); 73.3% (second compound 0.000949 µM, first compound 0.316 µM); 67.9% (second compound 0.000949 µM, first compound 1 µM); 78.7% (second compound 0.000949 µM, first compound 3.16 µM); 67.8% (second compound 0.000949 µM, first compound 10 µM). Also, the viability, T/C was 50.3% (second compound 0.003 µM, first compound 0.0316 µM); 53.9% (second compound 0.003 µM, first compound 0.1 µM); 56.5% (second compound 0.003 µM, first compound 0.316 µM); 47.6% (second compound 0.003 µM, first compound 1 µM); 49.1% (second compound 0.003 µM, first compound 3.16 µM); 44% (second compound 0.003 µM, first compound 10 µM). Besides, the viability, T/C (second compound 0.00949 µM, first compound 0.0316 µM) is 26.1%; the viability, T/C (second compound 0.00949 µM, first compound 0.1 µM) is 33.1%; the viability, T/C (second compound 0.00949 µM, first compound 0.316 µM) was 23.6%; the viability, T/C (second compound 0.00949 µM, first compound 1 µM) was 23.7%; the viability, T/C (second compound 0.00949 µM, first compound 3.16 µM) is 24.4%; the viability, T/C (second compound 0.00949 µM, first compound 10 µM) was 21.2%. In addition, the viability, T/C runs as follows: (second compound 0.03 µM, first compound 0.0316 µM) 15.9%; (second compound 0.03 µM, first compound 0.1 µM) 17.1%; (second compound 0.03 µM, first compound 0.316 µM) 18.2%; (second compound 0.03 µM, first compound 1 µM) 16.2%; (second compound 0.03 µM, first compound 3.16 µM) 18.7%; (second compound 0.03 µM, first compound 10 µM) 14.6%. The viability, T/C (second compound 0.0949 µM, first compound 0.0316 µM) is 16.4%; the viability, T/C (second compound 0.0949 µM, first compound 0.1 µM) is 17.4%; the viability, T/C (second compound 0.0949 µM, first compound 0.316 µM) was 18.8%; the viability, T/C (second compound 0.0949 µM, first compound 1 µM) was 20.6%; the viability, T/C (second compound 0.0949 µM, first compound 3.16 µM) is 18.8%; the viability, T/C (second compound 0.0949 µM, first compound 10 µM) was 13.6%. The viability, T/C is, setting by setting: (second compound 0.3 µM, first compound 0.0316 µM) 16.4%; (second compound 0.3 µM, first compound 0.1 µM) 15.7%; (second compound 0.3 µM, first compound 0.316 µM) 17.6%; (second compound 0.3 µM, first compound 1 µM) 16.4%; (second compound 0.3 µM, first compound 3.16 µM) 19.1%; (second compound 0.3 µM, first compound 10 µM) 11.8%.
